The values that follow come from US6905840B1, “Double motor mutant assay for antifungal agents” (Cytokinetics, Inc., priority 2003, dated 2005).

Assay [1] has as its system kip3-20(ts) dyn1Δ (DS765) double mutant. In words: Benomyl suppression of lethality of the kip3(ts) dyn1 double mutant, spot growth on YPD. It counts as cell-based, Saccharomyces cerevisiae. Conditions: 37° C., solid YPD medium with 1% DMSO, 5 or 10 μg/ml benomyl, 3 d; little growth in the absence of benomyl. The procedure:
Since one phenotype of the kip3 single mutant and the kip3(ts) dyn1 double mutant is increased microtubule abundance, it was tested whether the microtubule-depolymerizing drug benomyl could suppress the lethality of the kip3(ts) dyn1 double mutant.

Assay [2] concerns kip3-30(ts) kar3Δ (DS752) double mutant. In words: Benomyl suppression of lethality of the kip3-30(ts) kar3 double mutant, spot growth on YPD. Format: cell-based, Saccharomyces cerevisiae. Conditions: medium containing a low concentration of benomyl, restrictive temperature (FIG. 1C).

In the case of `CCCCNC(=O)n1c(NC(=O)OC)nc2ccccc21` [benomyl], the “growth of the kip3(ts) dyn1 double mutant (suppression of lethality)” value in assay [1] is recorded as “significant growth”. In addition, in assay [2], the “lethality of the kip3-30(ts) kar3 double mutant” value is recorded as “partially suppressed”.
